Assay results reported in patent US12668600B2 (Kumquat Biosciences Inc., priority 2023, dated 2026).

What was measured:
Assay type in all cases: biochemical
[1] = molecular target: T1, KRAS WT (Homo sapiens, UniProt P01116); assay: HTRF KRAS-SOS1 interaction assay, wildtype KRAS; conditions: binned ≤2 μM / >2 μM, read-out: Inhibition of KRAS WT (IC50)
T1 construct: made in house; host or cells: E. coli, e.g. BL21 (DE3)
Procedure, shortened: (§1)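 GST-KRAS + anti-GST-Eu; His-hSOS1 + anti-6His-XL665; cpd in DMSO, duplicate, 10–0.01 μM; ~10 min incubation; HTRF ex 337/em 620, 665 nm; IC50 fitted on 665/620 ratio.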

[2] = molecular target: T2, KRAS G12D (Homo sapiens, UniProt P01116, G12D); assay: HTRF KRAS-SOS1 interaction assay, KRAS G12D; conditions: binned ≤2 μM / >2 μM, read-out: Inhibition of KRAS G12D (IC50)
T2 construct: made in house; host or cells: E. coli, e.g. BL21 (DE3)
T2 sequence (P01116 1-188 isoform P01116-2 G12D): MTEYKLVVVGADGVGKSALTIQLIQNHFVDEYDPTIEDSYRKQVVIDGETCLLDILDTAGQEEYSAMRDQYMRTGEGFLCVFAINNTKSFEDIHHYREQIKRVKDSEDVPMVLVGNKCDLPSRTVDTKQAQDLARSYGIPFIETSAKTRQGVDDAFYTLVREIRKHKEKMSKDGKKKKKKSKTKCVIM
Procedure, shortened: as §1

[3] = molecular target: T3, KRAS G12V (Homo sapiens, UniProt P01116, G12V); assay: HTRF KRAS-SOS1 interaction assay, KRAS G12V; conditions: binned ≤2 μM / >2 μM, read-out: Inhibition of KRAS G12V (IC50)
T3 construct: made in house; host or cells: E. coli, e.g. BL21 (DE3)
T3 sequence (P01116 1-188 isoform P01116-2 G12V): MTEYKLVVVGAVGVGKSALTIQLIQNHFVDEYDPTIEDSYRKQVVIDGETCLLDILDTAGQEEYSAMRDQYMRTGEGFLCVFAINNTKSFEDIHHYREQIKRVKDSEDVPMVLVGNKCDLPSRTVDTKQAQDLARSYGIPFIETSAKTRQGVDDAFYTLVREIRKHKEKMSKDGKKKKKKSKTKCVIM
Procedure, shortened: as §1

[4] = molecular target: T4, KRAS G12S (Homo sapiens, UniProt P01116, G12S); assay: HTRF KRAS-SOS1 interaction assay, KRAS G12S; conditions: binned ≤2 μM / >2 μM, read-out: Inhibition of KRAS G12S (IC50)
T4 construct: made in house; host or cells: E. coli, e.g. BL21 (DE3)
T4 sequence (P01116 1-188 isoform P01116-2 G12S): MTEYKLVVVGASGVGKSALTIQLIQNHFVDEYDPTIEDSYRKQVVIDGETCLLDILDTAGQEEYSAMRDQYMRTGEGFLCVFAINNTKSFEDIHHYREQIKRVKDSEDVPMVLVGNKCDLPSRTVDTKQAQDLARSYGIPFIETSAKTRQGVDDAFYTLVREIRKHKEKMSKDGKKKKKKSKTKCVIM
Procedure, shortened: as §1

T1 sequence (P01116 1-188 isoform P01116-2): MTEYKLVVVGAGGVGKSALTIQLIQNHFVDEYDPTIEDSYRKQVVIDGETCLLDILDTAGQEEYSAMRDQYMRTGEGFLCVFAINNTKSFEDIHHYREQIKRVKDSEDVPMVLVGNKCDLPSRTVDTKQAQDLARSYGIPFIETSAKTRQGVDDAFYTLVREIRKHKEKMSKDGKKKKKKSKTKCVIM

| SMILES | IC50 [1] | IC50 [2] | IC50 [3] | IC50 [4] |
| --- | --- | --- | --- | --- |
| N#Cc1c(N)sc2c(F)ccc(-c3c(C(F)(F)F)c4c5c(nc(OC[C@@]67CCCN6C[C@@]6(CC6(F)F)C7)nc5c3F)N([C@H](CCC(F)(F)F)c3cccnc3N)CCO4)c12 [Compound 883, 2-amino-4-(4-((R)-1-(2-aminopyridin-3-yl)-4,4,4-trifluorobutyl)-2-(((1S,7a′S)-2,2-difluorodihydro-1′H,3′H-spiro[cyclopropane-1,2′-pyrrolizin]-7a′(5′H)-yl)methoxy)-10-fluoro-8-(trifluoromethyl)-5,6-dihydro-4H-[1,4]oxazepino[5,6,7-de]quinazolin-9-yl)-7-fluorobenzo[b]thiophene-3-carbonitrile] | ≤ 2 µM | ≤ 2 µM | ≤ 2 µM | ≤ 2 µM |
| C[C@H](c1cc(Cl)cnc1N)N1CCOc2c(C(F)(F)F)c(-c3ccc(F)c4sc(N)c(C#N)c34)c(F)c3nc(OC[C@@]45CCCN4C[C@H](F)C5)nc1c23 (single isomer, unassigned) [Compound 766] | ≤ 2 µM | ≤ 2 µM | ≤ 2 µM | ≤ 2 µM |
| C[C@H](c1cccnc1N)N1CCOc2c(C(F)(F)F)c(-c3cc(F)c(F)c4sc(N)c(C#N)c34)c(F)c3nc(OC[C@@]45CCCN4C[C@H](F)C5)nc1c23 (single isomer, unassigned) [Compound 853] | ≤ 2 µM | ≤ 2 µM | ≤ 2 µM | ≤ 2 µM |
| C[C@H](c1cc(Cl)cnc1N)N1CCOc2c(C(F)(F)F)c(-c3ccc(F)c4sc(N)c(C#N)c34)c(F)c3nc(OCC4(CN5CC[C@@H](F)C5)CC4)nc1c23 [Compound 811, 2-amino-4-(4-((R)-1-(2-amino-5-chloropyridin-3-yl)ethyl)-10-fluoro-2-((1-(((R)-3-fluoropyrrolidin-1-yl)methyl)cyclopropyl)methoxy)-8-(trifluoromethyl)-5,6-dihydro-4H-[1,4]oxazepino[5,6,7-de]quinazolin-9-yl)-7-fluorobenzo[b]thiophene-3-carbonitrile] | ≤ 2 µM | ≤ 2 µM | ≤ 2 µM | ≤ 2 µM |
| N#Cc1c(N)sc2c(F)ccc(-c3c(C(F)(F)F)c4c5c(nc(OC[C@@]67CCCN6C[C@H](F)C7)nc5c3F)N([C@H](C/C=C/C(F)(F)F)c3cccnc3N)CCO4)c12 (single isomer, unassigned) [Compound 739] | ≤ 2 µM | ≤ 2 µM | ≤ 2 µM | ≤ 2 µM |
| CNc1sc2c(F)ccc(-c3c(C(F)(F)F)c4c5c(nc(OC[C@@]67CCCN6C[C@H](F)C7)nc5c3F)N([C@H](CCC3CCOCC3)c3cccnc3N)CCO4)c2c1C#N [Compound 709, 4-(4-((R)-1-(2-aminopyridin-3-yl)-3-(tetrahydro-2H-pyran-4-yl)propyl)-10-fluoro-2-(((2R,7aS)-2-fluorotetrahydro-1H-pyrrolizin-7a(5H)-yl)methoxy)-8-(trifluoromethyl)-5,6-dihydro-4H-[1,4]oxazepino[5,6,7-de]quinazolin-9-yl)-7-fluoro-2-(methylamino)benzo[b]thiophene-3-carbonitrile] | ≤ 2 µM | ≤ 2 µM | ≤ 2 µM | ≤ 2 µM |
| C[C@H](c1cccnc1N)N1CCOc2c(C(F)(F)F)c(-c3ccc(F)c4sc(N)c(C#N)c34)c(F)c3nc(OC[C@@]45CCCN4CC(C#N)C5)nc1c23 (stereo partly drawn) [Compound 852, (7aS)-7a-(((9-(2-amino-3-cyano-7-fluorobenzo[b]thiophen-4-yl)-4-((R)-1-(2-aminopyridin-3-yl)ethyl)-10-fluoro-8-(trifluoromethyl)-5,6-dihydro-4H-[1,4]oxazepino[5,6,7-de]quinazolin-2-yl)oxy)methyl)hexahydro-1H-pyrrolizine-2-carbonitrile] | ≤ 2 µM | > 2 µM | > 2 µM | > 2 µM |
| C[C@H](c1cc(F)cnc1N)N1CCOc2c(C(F)(F)F)c(-c3ccc(F)c4sc(N)c(C#N)c34)c(F)c3nc(OCC4(CN5CCC6(CC5)CC6(F)F)CC4)nc1c23 [Compound 841, 2-amino-4-(4-((R)-1-(2-amino-5-fluoropyridin-3-yl)ethyl)-2-((1-((1,1-difluoro-6-azaspiro[2.5]octan-6-yl)methyl)cyclopropyl)methoxy)-10-fluoro-8-(trifluoromethyl)-5,6-dihydro-4H-[1,4]oxazepino[5,6,7-de]quinazolin-9-yl)-7-fluorobenzo[b]thiophene-3-carbonitrile] | ≤ 2 µM | ≤ 2 µM | ≤ 2 µM | ≤ 2 µM |
| C[C@H](c1cccnc1N)N1CCOc2nc(-c3ccc(F)c4sc(N)c(C#N)c34)c(F)c3nc(OC[C@@]45CCCN4C[C@H](F)C5)nc1c23 (single isomer, unassigned) [Compound 619] | ≤ 2 µM | ≤ 2 µM | ≤ 2 µM | ≤ 2 µM |
| COc1ccc([C@@H](C)N2CCOc3c(Cl)c(-c4ccc(F)c5sc(N)c(C#N)c45)c(F)c4nc(OC[C@@]56CCCN5C[C@H](F)C6)nc2c34)c(N)n1 [Compound 706, 2-amino-4-(4-((R)-1-(2-amino-6-methoxypyridin-3-yl)ethyl)-8-chloro-10-fluoro-2-(((2R,7aS)-2-fluorotetrahydro-1H-pyrrolizin-7a(5H)-yl)methoxy)-5,6-dihydro-4H-[1,4]oxazepino[5,6,7-de]quinazolin-9-yl)-7-fluorobenzo[b]thiophene-3-carbonitrile] | ≤ 2 µM | ≤ 2 µM | ≤ 2 µM | ≤ 2 µM |
| Cc1c(F)c(N)cc(-c2nc3c4c(nc(OC[C@@H]5CCCN5C)nc4c2F)N([C@H](C)c2cccnc2N)CCO3)c1C(F)(F)F (single isomer, unassigned) [Compound 695] | ≤ 2 µM | ≤ 2 µM | ≤ 2 µM | ≤ 2 µM |
| COC[C@H](c1cccnc1N)N1CCOc2c(C(F)(F)F)c(-c3ccc(F)c4sc(N)c(C#N)c34)c(F)c3nc(OC[C@@]45CCCN4C[C@H](F)C5)nc1c23 [Compound 684, 2-amino-4-(4-((S)-1-(2-aminopyridin-3-yl)-2-methoxyethyl)-10-fluoro-2-(((2R,7aS)-2-fluorotetrahydro-1H-pyrrolizin-7a(5H)-yl)methoxy)-8-(trifluoromethyl)-5,6-dihydro-4H-[1,4]oxazepino[5,6,7-de]quinazolin-9-yl)-7-fluorobenzo[b]thiophene-3-carbonitrile] | ≤ 2 µM | ≤ 2 µM | ≤ 2 µM | ≤ 2 µM |
| N#Cc1c(N)sc2c(F)ccc(-c3c(Cl)c4c5c(nc(OC[C@@]67CCCN6C[C@H](F)C7)nc5c3F)N([C@H](C/C=C/C(F)(F)F)c3cccnc3N)CCO4)c12 [Compound 733, 2-amino-4-(4-((R,E)-1-(2-aminopyridin-3-yl)-5,5,5-trifluoropent-3-en-1-yl)-8-chloro-10-fluoro-2-(((2R,7aS)-2-fluorotetrahydro-1H-pyrrolizin-7a(5H)-yl)methoxy)-5,6-dihydro-4H-[1,4]oxazepino[5,6,7-de]quinazolin-9-yl)-7-fluorobenzo[b]thiophene-3-carbonitrile] | ≤ 2 µM | ≤ 2 µM | ≤ 2 µM | ≤ 2 µM |
| C[C@H](c1cc(F)cnc1N)N1CCOc2c(C(F)(F)F)c(-c3ccc(F)c4sc(N)c(C#N)c34)c(F)c3nc(OC[C@@]45CCCN4C[C@H](F)C5)nc1c23 (single isomer, unassigned) [Compound 864] | ≤ 2 µM | ≤ 2 µM | ≤ 2 µM | ≤ 2 µM |
| N#Cc1c(N)sc2c(F)ccc(-c3c(Cl)c4c5c(nc(OC[C@@]67CCCN6C[C@H](F)C7)nc5c3F)N([C@H](/C=C/C(F)F)c3cccnc3N)CCO4)c12 [Compound 731, 2-amino-4-(4-((R,E)-1-(2-aminopyridin-3-yl)-4,4-difluorobut-2-en-1-yl)-8-chloro-10-fluoro-2-(((2R,7aS)-2-fluorotetrahydro-1H-pyrrolizin-7a(5H)-yl)methoxy)-5,6-dihydro-4H-[1,4]oxazepino[5,6,7-de]quinazolin-9-yl)-7-fluorobenzo[b]thiophene-3-carbonitrile] | ≤ 2 µM | ≤ 2 µM | ≤ 2 µM | ≤ 2 µM |
| C=CC(F)(F)[C@@H](c1cccnc1N)N1CCOc2c(Cl)c(-c3ccc(F)c4sc(N)c(C#N)c34)c(F)c3nc(OC[C@@]45CCCN4C[C@H](F)C5)nc1c23 [Compound 834, 2-amino-4-(4-((R)-1-(2-aminopyridin-3-yl)-2,2-difluorobut-3-en-1-yl)-8-chloro-10-fluoro-2-(((2R,7aS)-2-fluorotetrahydro-1H-pyrrolizin-7a(5H)-yl)methoxy)-5,6-dihydro-4H-[1,4]oxazepino[5,6,7-de]quinazolin-9-yl)-7-fluorobenzo[b]thiophene-3-carbonitrile] | ≤ 2 µM | > 2 µM | ≤ 2 µM | ≤ 2 µM |
| C[C@H](c1cccnc1N)N1CCOc2c(C(F)(F)F)c(-c3ccc(F)c4sc(N)c(C#N)c34)c(F)c3nc(OCC4(CN5[C@H](C)COC[C@@H]5C)CC4)nc1c23 (single isomer, unassigned) [Compound 763] | ≤ 2 µM | ≤ 2 µM | ≤ 2 µM | ≤ 2 µM |
